The source made the active and inactive calls. No cut-off for these calls is given here.
How the values were obtained:
Mus musculus [1] = test: Anticonvulsant activity in Mus musculus Balb/c (mouse) assessed as increase in latency to seizure at 100 mg/kg, ip pretreated 30 min before pentylenetetrazol challenge by pentylenetetrazol test; format: functional, organism-based; design: dose 100 mg/kg
Mus musculus [2] = test: Anticonvulsant activity in Mus musculus Balb/c (mouse) assessed as inhibition of pentylenetetrazol-induced mortality at 100 mg/kg, ip pretreated 30 min before pentylenetetrazol challenge by pentylenetetrazol test; format: functional, organism-based; design: dose 100 mg/kg
Mus musculus [3] = test: Anticonvulsant activity in Mus musculus Balb/c (mouse) assessed as decrease in severity of seizure at 100 mg/kg, ip pretreated 30 min before pentylenetetrazol challenge by pentylenetetrazol test; format: functional, organism-based; design: dose 100 mg/kg
Mus musculus [4] = test: Anticonvulsant activity in Mus musculus Balb/c (mouse) assessed as effect on latency of tonic hind limb extension at 100 mg/kg, ip measured after 30 min by maximal electroshock seizure test; format: functional, organism-based; design: dose 100 mg/kg; conditions: Hindlimb
Mus musculus [5] = test: Anticonvulsant activity in Mus musculus Balb/c (mouse) assessed as effect on maximal electroshock-induced mortality rate 100 mg/kg, ip measured after 30 min; format: functional, organism-based; design: dose 100 mg/kg
Mus musculus [6] = test: Anticonvulsant activity in Mus musculus Balb/c (mouse) assessed as decrease in duration of tonic hind limb extension at 100 mg/kg, ip measured after 30 min by maximal electroshock seizure test; format: functional, organism-based; design: dose 100 mg/kg; conditions: Hindlimb
Mus musculus [7] = test: Anticonvulsant activity in Mus musculus Balb/c (mouse) assessed as increase in latency to seizure at 150 to 200 mg/kg, ip pretreated 30 min before pentylenetetrazol challenge by pentylenetetrazol test; format: functional, organism-based
Mus musculus [8] = test: Anticonvulsant activity in Mus musculus Balb/c (mouse) assessed as effect on severity of seizure at 150 to 200 mg/kg, ip pretreated 30 min before pentylenetetrazol challenge by pentylenetetrazol test; format: functional, organism-based
Mus musculus [9] = test: Anticonvulsant activity in Mus musculus Balb/c (mouse) assessed as inhibition of pentylenetetrazol-induced mortality at 150 to 200 mg/kg, ip pretreated 30 min before pentylenetetrazol challenge by pentylenetetrazol test; format: functional, organism-based
Mus musculus [10] = test: Toxicity in Mus musculus Balb/c (mouse) assessed as duration of spike-wave discharges at 150 mg/kg, ip measured for 2 hr by EEG recordings (reference value: 359.8 +/- 33.5 sec); format: organism-based; design: dose 150 mg/kg, route intraperitoneal; conditions: in vivo
Mus musculus [11] = test: Toxicity in Mus musculus Balb/c (mouse) assessed as duration of spike-wave discharges at 100 mg/kg, ip measured for 2 hr by EEG recordings (reference value: 359.8 +/- 33.5 sec); format: organism-based; design: dose 100 mg/kg, route intraperitoneal; conditions: in vivo
Mus musculus [12] = test: Anticonvulsant activity in Mus musculus Balb/c (mouse) assessed as decrease in severity of seizure at 150 to 200 mg/kg, ip pretreated 30 min before pentylenetetrazol challenge by pentylenetetrazol test; format: functional, organism-based

Row | Compound | Activity (Mus musculus [1]) | inhibition (Mus musculus [2]) | inhibition (Mus musculus [3]) | Activity (Mus musculus [4]) | Activity (Mus musculus [5]) | inhibition (Mus musculus [6]) | Activity (Mus musculus [7]) | Activity (Mus musculus [8]) | inhibition (Mus musculus [9]) | Time (Mus musculus [10]) [s] | Time (Mus musculus [11]) [s] | inhibition (Mus musculus [12])
1 | CCC1(C)CC(=O)NC1=O (configuration not stated) | Active | Active | Active | – | – | – | – | – | – | – | – | –
2 | Cc1n[nH]c(C)c1NC(=O)c1cccnc1 | Active | Active | Active | – | – | – | – | – | – | – | – | –
3 | Cc1n[nH]c(C)c1/N=C/c1c(Cl)cccc1Cl | Active | Active | Active | inactive | inactive | Active | – | – | – | – | – | –
4 | Cc1n[nH]c(C)c1/N=C/c1ccc(O)cc1 | Active | Active | Active | – | – | – | – | – | – | – | – | –
5 | Cc1n[nH]c(C)c1NC(=O)c1ccncc1 | Active | Active | Active | – | – | – | – | – | – | – | – | –
6 | Cc1ccc(C(=O)Nc2c(C)nn(C(=O)c3ccc(C)cc3)c2C)cc1 | Active | Active | Active | – | – | – | – | – | – | – | – | –
7 | Cc1nn(C(=O)c2ccc(Cl)cc2)c(C)c1NC(=O)c1ccc(Cl)cc1 | Active | Active | Active | – | – | – | – | – | – | – | – | –
8 | Cc1n[nH]c(C)c1/N=C/c1ccccc1O | Active | Active | Active | – | – | – | – | – | – | – | – | –
9 | COc1ccc(C(=O)Nc2c(C)nn(C(=O)c3ccc(OC)cc3)c2C)cc1 | Active | Active | Active | – | – | – | Active | inactive | inactive | – | – | –
10 | Cc1nn(C(=O)c2ccc(F)cc2)c(C)c1NC(=O)c1ccc(F)cc1 | Active | Active | Active | inactive | inactive | Active | – | – | – | – | – | –
11 | Cc1nn(C(=O)c2c(Cl)cccc2Cl)c(C)c1NC(=O)c1c(Cl)cccc1Cl | Active | Active | Active | – | – | – | Active | – | Active | 337.5 | 300 | Active

From ChEMBL document CHEMBL3044833, “Anticonvulsant activity of 3,5-dimethylpyrazole derivatives in animal models” (Med Chem Res, 2011)
